# Where two headings read alike, the source gives them in different places.
# Experiments:
# [1] = system: migration of polymorphonuclear leukocytes (PMN) to the site of inflammation; experiment: Suppression of migration of polymorphonuclear leukocytes, carboxymethylcellulose-pouch method; type: in vivo, male Donryu rats; conditions: rats, PMN counted 6 hours after injection into pouch
# Procedure: While using groups of male Donryu rats (six rats per group) and following the carboxymethylcellulose-pouch method (refer to Ishikawa et al. […] ZASSHI (Journal of the Pharmaceutical Society of Japan), 88, 1472, 1968), the extent of inhibition of migration of polymorphonuclear leukocytes to the site of inflammation by present substance No.1 was examined. The specimen (present substance No.1) was dispersed in an aqueous 0.2 % solution of carboxymethylcellulose and the dispersion was administered to each rat at a predetermined dose rate, and only the aqueous 0.2 % solution of carboxymethylcellulose was administered to each rat of control group. The test was carried out by injecting the aqueous 0.2 % solution of carboxymethyl-cellulose into the pouch formed in the body of the rat and after 6 hours of the injection, the number of polymorphonuclear leukocytes in the exudate into the pouch was counted. […]
# [2] = system: proliferation of granuloma; experiment: Suppression of proliferation of granuloma, filter paper implant method of Fujimura; type: in vivo, male Donryu rats; conditions: once a day for 10 days, rats, dried granuloma weighed after 11 days
# Procedure: While using groups of male Donryu rats in the fifth week after birth (5 rats per group), the activity of present substance No.1 in suppressing the proliferation of granuloma was tested by the method of Fujimura (refer to OYOYAKURI (Pharmacometrics), 19 (3), 329, 1980).
# After soaking sheets of filter paper of 13 mm in diameter and 28 mg in weight into an aqueous 2% solution of carboxymethylcellulose containing both dihydroxystreptomycin and penicillin, each of 10⁶ unit at the respective concentration of 0.1 mg/ml, each of the thus treated sheets was buried subcutaneously into the back of each rat under anaesthesia by ether. […] After 11 days of the treatment, granuloma formed in the rat was removed, dried for 24 hours at 70°C and weighed.
# [3] = Acute mammalian toxicity (oral LD50); conditions: mouse, in vivo
# Procedure: After dispersing present substance No.1 in an aqueous 0.2 % solution of carboxymethylcellulose, the aqueous dispersion was orally administered to each of male Jcl-ICR mice. As a result, LD₅₀ (acute, oral) of the tested substance was larger than 4,000 mg/kg.
Structure (SMILES),Rate of suppression of migration of PMN (%) ([1]; dose rate 50 mg/kg),Granuloma Rate of Suppression (%) ([2]; dose rate 50 mg/kg/day oral),"LD50 ([3]; oral, male Jcl-ICR mice, dispersed in aqueous 0.2 % carboxymethylcellulose, read-out: LD₅₀ (acute, oral))",Rate of suppression of migration of PMN (%) ([1]; dose rate 5 mg/kg),Granuloma Rate of Suppression (%) ([2]; dose rate 3 mg/kg/day oral),Rate of suppression of migration of PMN (%) ([1]; dose rate 10 mg/kg),Granuloma Rate of Suppression (%) ([2]; dose rate 5 mg/kg/day oral),Granuloma Rate of Suppression (%) ([2]; dose rate 10 mg/kg/day oral),"LD50 ([3]; male, Jcl-ICR, po)"
"O=Cc1ccc(O)c(O)c1 [3,4-dihydroxy-benzaldehyde, 3,4-dihydroxybenzaldehyde, reference compound]",27.5%,35.6%,1500 mg/kg,–,–,–,–,–,–
"C[C@]12C=CC(=O)C=C1CC[C@@H]1[C@@H]2[C@@H](O)C[C@@]2(C)[C@H]1CC[C@]2(O)C(=O)CO [Prednisolone, reference compound]",–,–,–,37.5%,42.2%,–,–,–,–
"CC(=O)Oc1ccc(C(OC(C)=O)OC(C)=O)cc1OC(C)=O [Present Substance No.1, 3,4-diacetoxybenzylidene diacetate]",51.9%,61.4%,–,41.2%,–,48.0%,42.8%,55.3%,> 4000 mg/kg
"COc1ccc2c(c1)c(CC(=O)O)c(C)n2C(=O)c1ccc(Cl)cc1 [Indomethacin, reference compound]",–,–,–,35.7%,–,–,–,–,–
